Measured values published in patent US20250049749A1, “COMPOSITION FOR IMPROVING SLEEP QUALITY OR CONTROLLING AUTONOMIC NERVOUS SYSTEM” (OTSUKA PHARMACEUTICAL CO., LTD., priority 2021, published 2025).
Entries after “also recorded” stand apart in the source; their conditions may differ.

Tests used:
Format in all cases: in vivo, human
[1] = tested on: persons with meteoropathy; assay: Test 3: meteoropathy symptom questionnaire before and after start of intake
Method: The test shown below was conducted to investigate the functions of kaempferol associated with meteoropathy. [table]

[2] = tested on: healthy adult men and women; assay: Test 1: randomized, double-blind, placebo-controlled, crossover comparative test (sleep and autonomic nervous system, Fitbit Charge 4)
Method: A randomized, double-blind, placebo-controlled, crossover comparative test as summarized in the table below was conducted to examine the relationship between kaempferol, sleep, and the autonomic nervous system.
The granular foods used in the test were prepared according to the following procedure. Horseradish leaves were extracted twice with 50% aqueous ethanol at 50° C. and concentrated under reduced pressure. The concentrate was purified with resin to obtain a solution. Hemicellulase “Amano” 90 and Lactase F “Amano” (produced by Amano Enzyme, Inc.) were added to the solution to allow the enzyme to act thereon while stirring at 50° C. The resulting reaction liquid was then heated to 80° C. and maintained for 20 minutes to inactivate the enzyme. The resulting treated liquid was then freeze-dried to give an ethanol extract powder. This powder was combined with an equal amount (on a weight basis) of starch and erythritol and mixed into granules. The granules were packed in aluminum pouches in an amount of 116 mg (containing 10 mg of kaempferol) per pouch. The subjects ingested the contents of one pouch at one time (10 mg of kaempferol in total). The food used as a placebo was granules of starch and erythritol.
The sleep score is an index of sleep quality on a scale of 0 to 100, with a score of 90 to 100 indicating very good sleep quality, a score of 80 to 89 indicating good sleep quality, a score of 60 to 79 indicating slightly low sleep quality, and a score of 60 or less indicating low sleep quality. The sleeping heart rate is known to correlate with sleep quality. Specifically, it has been reported that the higher the heart rate during sleep, the less satisfactory the sleep obtained is (i.e., the quality of sleep is low) (see Non-Patent Literature (NPL) 1). […] This is generally consistent with the difference between the average sleeping heart rate in people with good quality sleep and that in people with poor sleep quality (FIG. 3 in NPL 1).
RMSSD is the square root of the mean squared differences of successive adjacent R-R intervals (interval from one QRS wave to the next QRS wave) and is an index of vagal tone intensity. A rise in RMSSD indicates increased parasympathetic activity or decreased sympathetic activity. […] According to the formula shown in FIG. 2 (right), KMP intake is considered to rejuvenate the age of autonomic nervous system function by 16.3 years.
The LF/HF ratio is a ratio of low frequency (LF) to high frequency (HF) power and represents the overall balance between the sympathetic nervous system and the parasympathetic nervous system. A higher LF/HF ratio indicates a state of sympathetic nervous system dominance, whereas a lower LF/HF ratio indicates parasympathetic nervous system dominance. […] According to the formula shown in FIG. 3 (right), KMP intake is considered to rejuvenate the age of autonomic nervous system function by 5.8 years.

athletes = assay: Test 2: athlete questionnaire (0 to 10) and comments before and on day 30 of intake
Method: The following tests were carried out to investigate the functions of kaempferol. [table] [table] In addition to the above score evaluations, an optional evaluation of the mental and physical state after intake of the test sample as compared to that before the intake was obtained in the form of comments.

[3] = all symptoms, during KMP intake vs before, FIG. 7
[4] = 10 mg KMP once a day, two weeks, vs placebo, FIG. 1
[5] = 10 mg KMP once a day, day 30 vs before intake, FIG. 4, FIG. 5
[6] = all subjects (159 athletes), 10 mg KMP once a day, day 30 vs before intake, FIG. 4
[7] = optional comment of a single subject, state after intake of the test sample vs before
[8] = swimmers (50 persons), day 30 vs before intake, FIG. 5

O=c1c(O)c(-c2ccc(O)cc2)oc2cc(O)cc(O)c12 [KMP, kaempferol]
Effect on meteoropathy overall ([1]; 10 mg KMP once a day, 4 consecutive weeks): effective in the treatment and improvement of meteoropathy | Frequency of occurrence of each symptom of meteoropathy ([1]; all 12 symptoms (stiff shoulders and neck, fatigue, lassitude, headache, overall ill health, irritation, depressed mood, inability to think straight, lower back pain, lethargy, anxiety, joint pain), 10 mg KMP once a day, 4 weeks, vs before intake, 393 subjects, FIG. 6): significantly reduces | Degree of each symptom of meteoropathy (0-10 point scale) ([1]; all 12 symptoms, KMP intake vs before intake, FIG. 8): significantly alleviated | Duration of each symptom of meteoropathy [1, 3]: significantly reduced duration | Proportion of no occurrence of the symptom [1, 3]: increased proportion of no occurrence | Reduction of sleeping heart rate on average [2, 4]: 3.5 bpm | Sleep duration [2, 4]: no significant change | Sleeping heart rate [2, 4]: significantly reduces | RMSSD during sleep ([2]; 10 mg KMP once a day, two weeks, vs placebo, FIG. 2 (left)): increase in RMSSD value | LF/HF ratio during sleep ([2]; 10 mg KMP once a day, two weeks, vs placebo, FIG. 3 (left)): reduces the LF/HF ratio | Rejuvenation of the age of autonomic nervous system function (from RMSSD vs age formula) ([2]; according to the formula shown in FIG. 2 (right)): 16.3 years | Rejuvenation of the age of autonomic nervous system function (from LF/HF ratio vs age formula) ([2]; according to the formula shown in FIG. 3 (right)): 5.8 years | Sleep score ([2]; granular food with 10 mg KMP once a day after breakfast, two weeks, vs placebo, 34 subjects, scale 0 to 100, FIG. 1): significantly improves | Achievement of exercise performance (athletes; [5]): useful | Fatigue alleviation (athletes; [5]): useful | Improvement of endurance (improved shortness of breath) (athletes; [5]): useful | Recovery from fatigue (athletes; [5]): useful | Ease in sleep (questionnaire score) (athletes; [6]): significant improvement | Ease in waking up (questionnaire score) (athletes; [6]): significant improvement | Comments relating to menstruation (athletes; [7]): Menstrual pain has been relieved. Menstrual cycle; also recorded: irregularities has been improved; also recorded: Menstrual pain has been relieved and abdominal; also recorded: Swollen feet before menstruation has been relieved; also recorded: has come naturally; also recorded: returned to normal | Comments relating to mental state (athletes; [7]): Have more motivation to practice; also recorded: Feel more highly motivated before a competition; also recorded: Feel more positive; also recorded: More mentally stable; also recorded: No longer feel depressed; also recorded: Feel less tired and more motivated to practice; also recorded: Feel better during practice; also recorded: Have become able to run more calmly than usual; also recorded: Feel more comfortable during running; also recorded: Feel more relaxed both during and outside of practice | Other comments (athletes; [7]): The time taken to get rid of jet lag was reduced; also recorded: The symptoms of seasonal colds were not seen; also recorded: Stools have improved; also recorded: Bowel movements have improved; also recorded: Healing from injuries is faster; also recorded: Healing of fractures is much faster; also recorded: Healing of wounds after tooth extraction is faster; also recorded: Easier body weight loss; also recorded: Easier to control body weight gain; also recorded: Have improved concentration; also recorded: Symptoms of jet lag were alleviated | Ease in sleep (questionnaire score), improvement in swimmers (athletes; [8]): particularly prominent | Ease in waking up (questionnaire score), improvement in swimmers (athletes; [8]): particularly prominent
